In general, EC50 refers to the concentration needed to bring the measured effect to its halfway point. In general, IC50 refers to the concentration needed to halve the response being measured.

Activity calls are given as the source filed them.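 How the source made its calls: active means compounds giving half or more protection of infected cells from virus-caused growth loss, again on retest; inactive means the rest.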 Where only a bound is given, the exact number is not on record here.

Experimental findings from PubChem BioAssay AID179 (DTP/NCI, 2004) are described below.

The subject of this assay is CEM cells HIV-1 protection, formazan growth assay. As to the kind of experiment: NCI AIDS Antiviral Assay. To be noted: for IC50: measured here: growth of uninfected CEM cells. The method in brief: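 Protection of CEM cells against HIV-1 was scored from cell growth (soluble formazan) across five concentrations, with parallel uninfected cells. Lack of protection may reflect toxicity.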

As to `S=C(S)N1CCCCC1`, the EC50 is greater than 200 µM. For `CC(Cl)CC(=O)OCC1CCCN2CCCCC12` (configuration not stated), the EC50 was greater than 200 µM and the IC50 is greater than 200 µM.

Regarding `COc1ccc(C(=O)C(c2ccc(OC)cc2)C2(O)C(=O)Nc3c(C)cc(Cl)cc32)cc1` (configuration not stated), the EC50 is greater than 79.4 µM and the IC50 is greater than 79.4 µM. For `O=C(/C=C/c1ccc(OCC(=O)N2CCN(c3ccccc3)CC2)cc1)c1ccc(Cl)cc1`, the EC50 was greater than 29.5 µM and the IC50 is greater than 29.5 µM.

Regarding `O=C(NC/C(Cl)=C/Cl)Nc1cccc2c1CCCC2`, the EC50 was greater than 200 µM and the IC50 worked out at 50.1 µM.

`NC(=O)C(N)(c1ccccc1)c1ccccc1`: the outcome was inactive. Consider `CSc1nc(=O)cnn1C`, for which the EC50 is greater than 200 µM and the IC50 was greater than 200 µM. `CCOC(=O)Cc1c(Cc2[nH]c(C(=O)OCc3ccccc3)c(CC(=O)OCC)c2CC(=O)OCC)[nH]c(C(=O)OCc2ccccc2)c1CC(=O)OCC`: the EC50 is greater than 5.01 µM and the IC50 was greater than 5.01 µM. Take `CC(C)(C)SSC(=S)C(c1ccccc1)c1ccccc1`: the EC50 is greater than 200 µM and the IC50 was found to be 182 µM.

On to `OC1(c2ccccc2)Oc2ccccc2C(c2ccccc2)C1c1ccccc1` (configuration not stated), for which the EC50 was greater than 200 µM and the IC50 was 9.55 µM. Take `CCCN=C(N)NC#N`: the EC50 was greater than 708 µM and the IC50 is greater than 708 µM. For the compound `C/C(N)=C/C(=O)c1[nH]c(C(=O)O)cc1C1CCN(Cc2ccccc2)C1=O` (configuration not stated), the EC50 was greater than 200 µM and the IC50 came to 31.6 µM. As to `O=C(NCc1ccccc1O)c1ccc(O)cc1O`, the EC50 is greater than 200 µM and the IC50 is 110 µM.

Turning to `CO[C@](C(=O)OC[C@H]1[C@@H](COC(C)=O)[C@@H]2O[C@H]1c1cc3c(cc12)OCO3)(c1ccccc1)C(F)(F)F`, the EC50 is greater than 200 µM and the IC50 came to 7.59 µM. As to `Cc1cccc(N2CCN(S(=O)(=O)c3ccc(Cl)cc3)C2=N)c1C`, the EC50 was greater than 200 µM and the IC50 was greater than 200 µM. As for `CC(=O)NC(CCCCNC(=O)OCc1ccccc1)C(=O)O` (configuration not stated), the EC50 is greater than 776 µM and the IC50 was greater than 776 µM. With `O=C(N/C(=C\c1ccc(/C=C(\NC(=O)c2ccccc2)c2nc3cc([N+](=O)[O-])ccc3[nH]2)cc1)c1nc2cc([N+](=O)[O-])ccc2[nH]1)c1ccccc1`, the result was inactive. For `NCCC(=O)NCS(=O)(=O)O`, the EC50 is greater than 200 µM and the IC50 was greater than 200 µM. For the compound `COC1/C=C\C=C(/C)C(=O)NC2=CC(=O)C(NC3CC3)=C(CC(C)CC(OC)C(O)C(C)/C=C(/C)C1OC(N)=O)C2=O` (configuration not stated), the outcome was inactive. As to `O=C(N=Nc1ccc(Br)cc1)NNc1ccc(Br)cc1`, the EC50 was greater than 200 µM and the IC50 stood at 12.9 µM. Take `C=C1C(=O)OC(CCCCC)C1C(=O)O` (configuration not stated): the result was inactive. On to `CC(=O)/C(=C/c1ccccc1Cl)C(=O)c1ccccc1`, for which the EC50 was greater than 91.2 µM and the IC50 was 19.1 µM.

For the compound `CCOC(=O)C(=O)/C(=C/N1CCNC1=S)C(=O)OCC`, the outcome was inactive. For the compound `CCOP(=O)(OCC)/C(C#N)=C/c1cccc(Cl)c1`, the EC50 is greater than 224 µM and the IC50 came out at 174 µM.

Turning to `Cc1ccc(N(C(=O)CC(=O)N/N=C/c2ccccc2O)C(=O)c2ccccc2)cc1`, the outcome was inactive.

`O=C1OC(=O)c2c1ccc1ccc(Cl)cc21`: the result was inactive.

Turning to `CC(=O)C1=C(C)NC2C=CC=CN12` (configuration not stated), the EC50 was greater than 1410 µM and the IC50 was found to be 676 µM. Turning to `c1ccc2c(c1)ncn2C1CCCCO1` (configuration not stated), the EC50 is greater than 200 µM and the IC50 is greater than 200 µM.

`FC(F)(Sc1ncc[nH]1)c1nc2ccccc2o1`: the EC50 is 43.7 µM and the IC50 was greater than 200 µM. Turning to `Cc1ccc(CS(=O)C(Cl)(Cl)c2ccc(C)cc2)cc1` (configuration not stated), the EC50 is greater than 41.7 µM and the IC50 amounted to 15.5 µM. For `COC(=O)C1=C(O)c2ccc(Cl)cc2S(=O)(=O)N1C`, the EC50 was greater than 200 µM and the IC50 amounted to 87.1 µM. For `O=C1CN2C(c3ccccc3)=NN(c3ccc([N+](=O)[O-])cc3)C2(c2ccccc2)c2cc(Cl)ccc2N1CC1CC1` (configuration not stated), the EC50 is greater than 100 µM and the IC50 is greater than 100 µM. For the compound `CCN(CC)C(=O)O/N=C(/C)c1ccccc1`, the EC50 is greater than 200 µM and the IC50 is greater than 200 µM. In the case of `COC(=O)c1ccccc1NC(=O)C(=O)CC(=O)CC(c1ccccc1)c1c(O)c2ccccc2oc1=O` (configuration not stated), the EC50 was greater than 490 µM and the IC50 worked out at 245 µM. `N#CC(N=O)C(N)=O` (configuration not stated): the EC50 was greater than 200 µM and the IC50 is greater than 200 µM. For `N#Cc1ccnc(C(=O)N2CCCC2C(=O)O)c1` (configuration not stated), the EC50 is greater than 200 µM and the IC50 is greater than 200 µM.

Consider `COc1ccc2c(c1)[n+](=O)c(C(=O)CC(=O)C(=O)Nc1cccc(Cl)c1C)c(C)n2[O-]`, for which the EC50 is greater than 100 µM and the IC50 turned out to be 46.8 µM.

`O=S1CCCCS1` (configuration not stated): the EC50 was greater than 912 µM and the IC50 came to 17.4 µM. Turning to `CCCC12C(C(=O)OC)C(=O)C(C(=O)OC)C1(C)C(C(=O)OC)C(=O)C2C(=O)OC` (configuration not stated), the EC50 is greater than 138 µM and the IC50 is 97.7 µM.

With `CCC1(O)C(=O)Nc2ccccc2C1=O` (configuration not stated), the EC50 was greater than 200 µM and the IC50 was greater than 200 µM. Regarding `CC(=O)c1cc2cc3c4c(c2oc1=O)CCCN4CCC3`, the EC50 was greater than 25.7 µM and the IC50 was greater than 25.7 µM.

As for `CCOP(=O)(C/C(=N/NC(C)(C)C)C(=O)Nc1nc2ccc(C)cc2s1)OCC`, the EC50 is greater than 58.9 µM and the IC50 is greater than 58.9 µM.

Turning to `Cc1cn(C2CC(Sc3cn[nH]n3)C(CO)O2)c(=O)[nH]c1=O` (configuration not stated), the EC50 is greater than 380 µM and the IC50 is 75.9 µM. For `COc1ccc(-c2cc(C)n(C3OC(CO)C(O)C(O)C3O)c(=S)c2C#N)cc1` (configuration not stated), in that order: greater than 200 µM and 126 µM. For the compound `CN(C)C=Nc1nc(=O)n(C2CCC(CO)O2)cc1F` (configuration not stated), the EC50 is 0.0676 µM and the IC50 was 95.5 µM. For `CC1(C)OC2C3CCC(C)(C3)C2(c2ccccc2)O1` (configuration not stated), in that order: greater than 87.1 µM and greater than 87.1 µM. Turning to `Cc1ccc(N=NC2=C3Sc4ccccc4N=C2N(c2ccc(Br)cc2)C(=S)N3c2ccc(Cl)cc2)cc1`, the EC50 is greater than 45.7 µM and the IC50 was greater than 45.7 µM. Consider `O=C(O)c1ccc(Sc2ccccc2)cc1`, for which the EC50 was greater than 200 µM and the IC50 was greater than 200 µM. `COc1ccccc1N1C(=O)/C(=C\c2cccc(Oc3ccccc3)c2)S(=O)(=O)C1c1ccccc1` (configuration not stated): the EC50 is greater than 200 µM and the IC50 stood at 36.3 µM. `COc1ccc2c(c1)C(=O)c1ccc(OC)cc1C2=S`: the result was inactive. As for `Fc1nc(F)nc(-c2c3ccccc3c3n2CCS3)n1`, the EC50 is greater than 25.1 µM and the IC50 was greater than 25.1 µM. On to `NNC(=O)CNC(=O)c1ccc(Cl)cc1Cl`, for which the EC50 is greater than 27.5 µM and the IC50 is greater than 27.5 µM. Turning to `Ic1nc(-c2ccccc2)[nH]c1I`, the result was inactive. On to `Cc1c(C(=O)C/C(=N/NC(=O)CC#N)C(N)=O)[n+](=O)c2ccccc2n1[O-]`, for which the EC50 was greater than 26.9 µM and the IC50 is greater than 26.9 µM. As for `Cc1ccc2[nH]c(=O)c(-c3cnc(=O)[nH]n3)c(O)c2c1`, the EC50 is 3.02 µM and the IC50 is 15.1 µM. Consider `Cc1ccc(S(=O)(=O)C2=c3ncccc3=C3C(=O)c4ccccc4C(=O)C32)cc1` (configuration not stated), for which the result was inactive. Regarding `CN(C)CCC(CCN(C)C)=NO`, the EC50 is greater than 955 µM and the concentration for half-maximal inhibition (IC50) is greater than 955 µM. For the compound `CN(C)c1nc2sc3c(c2c(=O)o1)CCCC3`, the EC50 is greater than 200 µM and the IC50 was found to be 51.3 µM. In the case of `CC(=O)On1c(-c2ccccc2-c2nc3ccccc3n2OC(C)=O)nc2ccccc21`, the EC50 is greater than 200 µM and the IC50 came to 77.6 µM. Regarding `O=C1COC(c2ccccc2O)=NN1CCN1CCOCC1`, the EC50 was greater than 105 µM and the IC50 is greater than 105 µM. As for `COC(=O)Nc1cn2c(n1)sc1ccccc12`, the EC50 is greater than 200 µM and the IC50 came out at 15.8 µM.

Turning to `CCOC(=O)CN1CCC2CC1c1c([nH]c3ccccc13)C2c1cc2c(cc1OC)N(C)C1C(O)(C(=O)OC)C(OC(C)=O)C3(CC)C=CCN4CCC21C43` (configuration not stated), the EC50 was greater than 9.55 µM and the IC50 is greater than 9.55 µM. Turning to `COc1cc2c(o1)C(=O)N1CCc3c([nH]c4ccccc34)C21` (configuration not stated), the EC50 is greater than 115 µM and the IC50 turned out to be 64.6 µM. The like results for `CCCC(NCCCCCCNC(CCC)C(=O)O)C(=O)O` (configuration not stated) were, in that order, greater than 525 µM and greater than 525 µM.

Regarding `O=c1c(O)c(-c2ccc(-c3oc4ccccc4c(=O)c3O)cc2)oc2ccccc12`, the EC50 was greater than 200 µM and the IC50 was determined as 93.3 µM. Regarding `CSCC1Cc2c(cc3c(c2O)C(=O)c2ccccc2C3=O)O1` (configuration not stated), the result was inactive. With `COc1ccc(C(=O)Cn2c(C(C)=O)nc3ccccc32)cc1`, the EC50 is greater than 200 µM and the IC50 came to 2.45 µM. For `CCCCCC(=O)Nc1n[nH]nc1C(N)=O`, the EC50 is greater than 200 µM and the IC50 is greater than 200 µM. `CC1OC(O[C@@H]2C=C3CC[C@@H]4[C@H](CC[C@]5(C)[C@@H](c6ccc(=O)oc6)CC[C@]45O)[C@@]3(C)CC2)C(O)C(OC2OC(CO)C(O)C(O)C2O)C1O` (some centres not stated): the EC50 was greater than 0.02 µM and the IC50 came to 0.00295 µM. As for `Cc1cc(=O)[nH]c(CNC(=O)c2ccc3ccccc3c2)n1`, the EC50 is greater than 123 µM and the IC50 is greater than 123 µM. Take `CN(C)C=C1C(Cl)=C(C=O)CC(C=O)=C1Cl`: the result was inactive. As to `N/N=C(\C(=O)Nc1ccc(Cl)cc1Cl)C(c1cnc2ccccc2n1)[N+](=O)[O-]` (configuration not stated), the EC50 was greater than 120 µM and the IC50 is greater than 120 µM. With `CCOC(=O)C1=C(C)/C(=C/c2[n-]c(C)c(C(=O)OCC)c2C)N=C1C.CCOC(=O)C1=C(C)/C(=C/c2[n-]c(C)c(C(=O)OCC)c2C)N=C1C.[Cu+2]`, the EC50 is greater than 200 µM and the IC50 is greater than 200 µM. Consider `COc1ccc([N+](=O)[O-])c2c(NCC(O)CO)ccnc12` (configuration not stated), for which the EC50 was greater than 200 µM and the IC50 is 29.5 µM.

On to `Cc1nc(C)c(C(=O)NNC(N)=S)cc1C(=O)NNC(N)=S`, for which the EC50 was greater than 200 µM and the IC50 is greater than 200 µM.
